Measured values: ChEMBL document CHEMBL1201862, “PubChem BioAssay data set” (2004)
Blank lines part the entries; values can stand above or below the compound they belong to. Activity calls are given as the source filed them.

Legend:
[1] = system: HeLa; experiment: HeLa cell cytotoxicity, dose response, cytotoxicity control, ATP luminescence, cherry-pick samples (AID 687004); format: functional, cell-based; conditions: Homo sapiens
[2] = human group III sPLA2 inhibitors, dose response, biochemical, QFRET, IC50 (AID 743457);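 also: green fluorescence rise as the enzyme cleaves BODIPY PC-A2 in liposomes; potency for inhibition of the enzyme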
[3] = HEK293T cell cytotoxicity, dose response, cytotoxicity control, luminescence plate reader, powder samples, set 4 (AID 651863); format: functional, cell-based; conditions: HEK293
[4] = intracellular Trypanosoma cruzi inhibitors in host cells – cell-based, plate reader, cherry-pick samples, set 3, dose response (AID 651818); format: functional;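 also: compounds incubated with infected cells for about four days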
[5] = HepG2 cell cytotoxicity, dose response, cytotoxicity control, cherry-picks, set 5 (AID 1053118); format: functional, cell-based
[6] = HEK293 cell cytotoxicity, dose response, cytotoxicity control, cherry-picks, set 5 (AID 1053117); format: functional, cell-based
[7] = A549 cell cytotoxicity, dose response, cytotoxicity control, cherry-picks, 26 µM top dose (AID 1053119); format: functional, cell-based
[8] = target: T1, Heat shock factor protein 1 (Mus musculus, UniProt P38532); experiment: HSF1 potentiators in luciferase reporter cells, confirmation, cell-based, NIH3T3, luminescence, dose retest (AID 435004); format: functional;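 also: stress induced by proteasome inhibitor MG132 added 30 min after compound; luciferase reporter driven by HSF1 response element in NIH3T3 cells; actives raise luminescence as potentiators of the MG132 stress response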
T1 sequence (P38532 whole entry): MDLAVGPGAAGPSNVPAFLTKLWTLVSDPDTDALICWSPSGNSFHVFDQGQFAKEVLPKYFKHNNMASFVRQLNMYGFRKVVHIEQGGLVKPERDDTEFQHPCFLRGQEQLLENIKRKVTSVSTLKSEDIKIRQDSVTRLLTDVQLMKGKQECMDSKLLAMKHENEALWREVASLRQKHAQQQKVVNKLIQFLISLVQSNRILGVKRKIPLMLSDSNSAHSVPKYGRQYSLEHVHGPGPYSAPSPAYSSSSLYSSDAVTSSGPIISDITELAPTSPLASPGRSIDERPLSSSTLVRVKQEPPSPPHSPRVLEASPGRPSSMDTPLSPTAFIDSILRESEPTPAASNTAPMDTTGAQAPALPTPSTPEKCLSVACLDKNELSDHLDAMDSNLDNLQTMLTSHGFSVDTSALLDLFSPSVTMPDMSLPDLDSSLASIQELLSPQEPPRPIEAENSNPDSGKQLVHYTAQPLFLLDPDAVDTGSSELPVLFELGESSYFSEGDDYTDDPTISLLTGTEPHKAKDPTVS

[9] = target: COUP transcription factor 2 (Homo sapiens, UniProt P24468); experiment: Luminescence-based cell-based high throughput dose response assay to identify inhibitors of COUP-TFII (NR2F2).; format: functional;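 also: HEK293 cells transiently cotransfected with COUP-TFII expression vector and reporter; luciferase reporter luminescence driven by COUP-TFII from the pX2-168 reporter plasmid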
COUP transcription factor 2, sequence (P24468 whole entry): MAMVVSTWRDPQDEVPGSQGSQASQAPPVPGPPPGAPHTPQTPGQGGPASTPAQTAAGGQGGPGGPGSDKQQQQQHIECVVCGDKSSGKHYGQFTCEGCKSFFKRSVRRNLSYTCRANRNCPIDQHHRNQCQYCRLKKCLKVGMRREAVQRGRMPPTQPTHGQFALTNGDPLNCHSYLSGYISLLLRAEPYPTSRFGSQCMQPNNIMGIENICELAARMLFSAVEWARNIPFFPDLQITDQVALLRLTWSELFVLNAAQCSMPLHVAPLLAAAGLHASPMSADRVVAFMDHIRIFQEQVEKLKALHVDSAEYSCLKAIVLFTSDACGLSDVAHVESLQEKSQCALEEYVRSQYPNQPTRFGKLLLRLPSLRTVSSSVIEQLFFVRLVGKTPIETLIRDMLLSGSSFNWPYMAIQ

[10] = target: Albumin (Bos taurus, UniProt P02769); experiment: Counterscreen for inhibitors of T-cell receptor (TCR)-CD3 interaction: Fluorescence-based biochemical high throughput dose response assay to identify inhibitors of T-cell receptor (TCR)-CD3 interaction using a TAMRA-labeled BSA probe.; format: functional
Albumin, sequence (P02769 whole entry): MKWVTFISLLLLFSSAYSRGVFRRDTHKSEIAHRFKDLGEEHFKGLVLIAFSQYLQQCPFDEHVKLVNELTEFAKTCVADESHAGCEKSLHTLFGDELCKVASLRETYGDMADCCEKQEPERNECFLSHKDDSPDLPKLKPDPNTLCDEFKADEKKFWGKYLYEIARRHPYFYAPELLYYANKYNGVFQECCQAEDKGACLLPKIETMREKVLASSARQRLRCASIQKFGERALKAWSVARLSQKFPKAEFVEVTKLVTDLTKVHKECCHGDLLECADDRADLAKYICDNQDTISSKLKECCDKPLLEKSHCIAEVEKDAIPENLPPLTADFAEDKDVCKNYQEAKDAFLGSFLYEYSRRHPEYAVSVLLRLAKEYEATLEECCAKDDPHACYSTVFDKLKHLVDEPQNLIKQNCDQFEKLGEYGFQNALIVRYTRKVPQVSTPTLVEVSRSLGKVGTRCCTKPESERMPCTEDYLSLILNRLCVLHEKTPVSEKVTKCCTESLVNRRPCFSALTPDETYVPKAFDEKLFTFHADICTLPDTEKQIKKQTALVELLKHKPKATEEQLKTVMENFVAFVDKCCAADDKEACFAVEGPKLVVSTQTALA

[11] = MITF Orthogonal Assay: SK-MEL-5 CTG Assay Measured in Cell-Based System Using Plate Reader - 2084-02_Inhibitor_Dose_DryPowder_Activity_Set7.; format: functional
[12] = MITF: Counter assay: A375 proliferation Measured in Cell-Based System Using Plate Reader - 2084-03_Inhibitor_Dose_DryPowder_Activity_Set8.; format: functional; conditions: A-375
[13] = TRPM1 promoter luciferase reporter signal decrease, dose response, MITF inhibitor project, cell-based, SK-MEL-5, dry powder, set 8 (AID 624430); format: functional
[14] = HepG2 cell cytotoxicity, dose response, cytotoxicity control, ATP luminescence, cherry-pick, set 6 (AID 1053125); format: functional, cell-based
[15] = cells; conditions: HEK293
[16] = target: Disintegrin and metalloproteinase domain-containing protein 17 (Homo sapiens, UniProt P78536); experiment: exosite inhibitors of ADAM17, dose response, biochemical (AID 743260)
Disintegrin and metalloproteinase domain-containing protein 17, sequence (P78536 whole entry, the tested form may be a part): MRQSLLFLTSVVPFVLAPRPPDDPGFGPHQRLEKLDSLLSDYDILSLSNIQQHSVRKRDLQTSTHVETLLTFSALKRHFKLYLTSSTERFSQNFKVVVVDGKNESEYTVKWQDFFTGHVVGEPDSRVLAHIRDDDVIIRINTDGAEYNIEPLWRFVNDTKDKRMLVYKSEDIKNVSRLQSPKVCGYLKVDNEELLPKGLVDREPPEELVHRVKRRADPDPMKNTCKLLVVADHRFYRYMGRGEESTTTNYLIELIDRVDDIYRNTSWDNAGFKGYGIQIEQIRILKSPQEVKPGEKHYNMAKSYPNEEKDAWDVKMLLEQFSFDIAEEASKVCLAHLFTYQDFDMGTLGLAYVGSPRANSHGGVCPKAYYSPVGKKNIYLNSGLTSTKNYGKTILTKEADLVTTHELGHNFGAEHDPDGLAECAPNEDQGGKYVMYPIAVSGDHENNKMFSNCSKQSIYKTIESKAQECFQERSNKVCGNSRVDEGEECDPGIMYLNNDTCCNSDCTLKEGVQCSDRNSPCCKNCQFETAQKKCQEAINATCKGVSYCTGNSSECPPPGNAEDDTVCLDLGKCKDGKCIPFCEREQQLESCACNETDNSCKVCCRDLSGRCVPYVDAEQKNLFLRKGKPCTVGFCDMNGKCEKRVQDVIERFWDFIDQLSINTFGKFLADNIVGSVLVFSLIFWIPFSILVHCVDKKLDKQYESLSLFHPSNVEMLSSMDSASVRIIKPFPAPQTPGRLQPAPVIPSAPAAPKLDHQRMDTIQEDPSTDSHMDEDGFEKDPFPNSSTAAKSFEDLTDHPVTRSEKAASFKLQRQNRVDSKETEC

[17] = ADAM10 protease inhibitors, dose response, selectivity assay for ADAM17 exosite inhibitor project, biochemical, FRET peptide substrate, recombinant human ADAM10 (AID 743259);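 also: ADAM10 enzyme cleaving a FRET peptide substrate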

SMILES: Cc1cccc(N=C(S)NN(Cc2ccccc2)c2ccccc2)c1C
AC50 [1]: > 52 µM (inactive)

IC50 [2]: > 122 µM (inactive)
SMILES: Sc1nnc(COc2ccccc2)n1-c1ccc(Cl)cc1

SMILES: Cc1cc(C)c(S(=O)(=O)Nc2ncnc3ccccc23)c(C)c1
AC50 [3]: 44.2 µM (active)

SMILES: C[C@H]1CN([C@@H](C)CO)C(=O)c2cccc(NC(=O)Nc3ccc(C(F)(F)F)cc3)c2O[C@@H]1CN(C)C(=O)Nc1cccc2ccccc12
AC50 [4]: 4.5 µM (active) | AC50 [5]: 25 µM (active) | AC50 [6]: 19.8 µM (active) | AC50 [7]: 29.7 µM (active)

EC50 [8]: > 260 µM (inactive) | IC50 [9]: 11.9 µM (inactive)
SMILES: Cc1ccc(-n2nc3c(=O)n(C(C)C(=O)NCc4ccccc4Cl)nc(C)c3c2C)cc1 (configuration not stated)

IC50 [10]: > 94.1 µM (inactive)
SMILES: CC(C)C(=O)Nc1ccc(C(=O)NNC(=S)NC(=O)c2ccccc2[N+](=O)[O-])cc1

SMILES: O=C1C=C(Nc2ccccc2Cl)C(=O)c2ccccc21
AC50 [11]: 0.172 µM (active) | AC50 [12]: > 70 µM (inactive) | AC50 [13]: 5.41 µM (active)

SMILES: Cc1ccc(OCC(=O)NNc2c3ccccc3nc3ccccc23)cc1
AC50 [14]: > 52 µM (inactive) | AC50 [15]: 27.7 µM (active)

IC50 [16]: > 69.5 µM (inactive)
SMILES: COC(=O)C1=C(C)N(Cc2cccc(C(F)(F)F)c2)C(NCc2ccc3c(c2)OCO3)=NC1c1ccc(F)cc1 (configuration not stated)
IC50 [17]: > 69.5 µM (inactive)
